Experimental data: patent publication US7294636B2, “Chemical compounds” (AstraZeneca AB, priority 2003, dated 2007)

Target: recombinant human CCR5 receptor (Homo sapiens, UniProt P51681)
Assay: in vitro radioligand binding assay, inhibition of MIP-1α binding (scintillation proximity)
Conditions: displacement of 0.1 nM iodinated MIP-1α; membranes from Chinese hamster ovary cells expressing CCR5; negative log10 of IC50 (M); average if tested more than once
Description: The ability of compounds to inhibit the binding of MIP-1α was assessed by an in vitro radioligand binding assay. Membranes were prepared from Chinese hamster ovary cells which expressed the recombinant human CCR5 receptor. These membranes were incubated with 0.1 nM iodinated MIP-1α, scintillation proximity beads and various concentrations of the compounds of the invention in 96-well plates. The amount of iodinated MP-1α bound to the receptor was determined by scintillation counting. Competition curves were obtained for compounds and the concentration of compound which displaced 50% of bound iodinated MIP-1α was calculated (IC50).
In Table III the results are presented as Pic50 values. […] If a compound was tested more than once then the data below is an average of the probative tests results.

Sequence of recombinant human CCR5 receptor (P51681 whole entry): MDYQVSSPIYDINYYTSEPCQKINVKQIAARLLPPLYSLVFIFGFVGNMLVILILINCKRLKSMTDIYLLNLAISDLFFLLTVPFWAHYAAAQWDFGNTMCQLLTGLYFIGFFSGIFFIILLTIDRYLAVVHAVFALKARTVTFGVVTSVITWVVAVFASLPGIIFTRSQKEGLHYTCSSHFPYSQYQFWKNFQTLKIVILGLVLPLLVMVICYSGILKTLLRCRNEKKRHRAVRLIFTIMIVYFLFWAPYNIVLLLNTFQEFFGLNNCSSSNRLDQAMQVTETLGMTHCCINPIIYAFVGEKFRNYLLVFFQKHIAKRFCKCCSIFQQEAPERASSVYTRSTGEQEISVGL

SMILES	IC50 [M]
CS(=O)(=O)c1ccc(Cc2noc(C3CCN(CC[C@@H](c4ccccc4)c4ccc(S(C)(=O)=O)cc4)CC3)n2)cc1 [Compound No. 3]	1.26e-09
Cc1nnc(C(C)C)n1C1CCN(CC[C@H](c2ccc(S(C)(=O)=O)cc2)c2cccc(F)c2)CC1 [Compound No. 2]	3.98e-08
CS(=O)(=O)c1ccc([C@@H](CCN2CCC(c3nc(Cc4ccccc4)no3)CC2)c2ccccc2)cc1 [Compound No. 4]	1.58e-08
CS(=O)(=O)c1ccc([C@@H](CCN2CCC(n3cnc4cc(S(C)(=O)=O)ccc43)CC2)c2ccccc2)cc1 [Compound No. 5]	3.98e-09
CSc1ccc(Cc2noc(C3CCN(CCC(c4ccccc4)c4ccc(S(C)(=O)=O)cc4)CC3)n2)cc1 (stereo not shown) [Compound No. 6]	6.31e-08
CS(=O)(=O)c1ccc([C@@H](CCN2CCC(n3cnc4cc(S(C)(=O)=O)ccc43)CC2)c2cccc(F)c2)cc1 [Compound No. 1, (R)-1-{1-[3-(3-fluoro-phenyl)-3-(4-methanesulfonyl-phenyl)-propyl]-piperidin-4-yl}-5-methanesulfonyl-1H-benzoimidazole]	1e-09

Now from value to molecule:

IC50 [M]	SMILES
1.58e-07	Cc1noc(C2CCN(CC[C@@H](c3ccccc3)c3ccc(S(C)(=O)=O)cc3)CC2)n1 [Compound No. 13]
1e-08	CS(=O)(=O)c1ccc([C@@H](CCN2CCC(n3cnc4cc(S(C)(=O)=O)ccc43)CC2)c2cccs2)cc1 [Compound No. 8]
1e-09	CS(=O)(=O)c1ccc([C@@H](CCN2CCC(n3cnc4cc(S(C)(=O)=O)ccc43)CC2)c2cc(F)cc(F)c2)cc1 [Compound No. 11]
2e-08	CS(=O)(=O)c1ccc([C@@H](CCN2CCC(n3cnc4cc(S(C)(=O)=O)ccc43)CC2)c2cc(Cl)cs2)cc1 [Compound No. 10]
1e-08	CS(=O)(=O)c1ccc([C@@H](CCN2CCC(n3cnc4cc(S(C)(=O)=O)ccc43)CC2)c2ccsc2)cc1 [Compound No. 7]
2e-08	Cc1nnc(C(C)C)n1C1CCN(CC[C@H](c2ccc(S(C)(=O)=O)cc2)c2cc(F)cc(F)c2)CC1 [Compound No. 12]
2e-08	CS(=O)(=O)c1ccc([C@@H](CCN2CCC(n3cnc4cc(S(C)(=O)=O)ccc43)CC2)c2ccc(Cl)s2)cc1 [Compound No. 9]
